These results are taken from patent US11021435B2, “Serotonin receptor-targeting compounds and methods” (priority 2014, dated 2021).

In data set [1] the target is T1, human 5-HT7 receptors (5-HT7a) (Homo sapiens, UniProt P34969).
T1 construct: expressed in transfected cells
As to the kind of experiment: Radioligand competition binding ([3H]5-CT), HEK293 cells stably expressing human 5-HT7 receptors. As to conditions: Affinity Ki 5-HT7, our unreported observations. From the text: FIGS. 4A-4C show the effects of 5-FPT are stereospecific. […] Data are expressed as the mean±SEM.
In general terms: Loss of bound radioactivity is the signal in a displacement assay; it reports binding, not function.

Data set [2] deals with T2, 5-HT2B (Homo sapiens, UniProt P41595). As to the kind of experiment: Radioreceptor competitive binding, [3H]mesulergine (4-PAT series). As to conditions: 1.95 nM [3H]mesulergine; read-out: Affinity (Ki ± SEM) 5-HT2B. The protocol: (§1) Radioreceptor competitive binding assays were carried out to assess the binding affinities of the compounds of the invention. Radioligand competitive displacement binding assays were performed in 96-well plates, using 3-5 μg of protein from membrane samples per well. Each concentration point in the binding experiments was performed in triplicates of samples, and each experiment was performed a minimum of three times. […] Non-specific binding was determined in the presence of or 10 μM mianserin for all three 5-HT2 receptors or 10 μM triprolidine for H1 receptors. Radioreceptor binding assay mixtures were incubated for 1.0 hour at 37° C., with termination by rapid filtration through Whatman GF/B filters using a 96-well cell harvester (Tomtec, Hamden, Conn.), which were subsequently washed five times with 50 mM Tris-HCl at room temperature. Filters containing bound [^3H]radioligand were dried, placed in vials containing 2 mL scintillation cocktail (ScintiVerse), allowed to equilibrate overnight, and then were counted for ^3H-induced scintillation using a Beckman-Coulter LS6500 counter.
T2 sequence (P41595 whole entry): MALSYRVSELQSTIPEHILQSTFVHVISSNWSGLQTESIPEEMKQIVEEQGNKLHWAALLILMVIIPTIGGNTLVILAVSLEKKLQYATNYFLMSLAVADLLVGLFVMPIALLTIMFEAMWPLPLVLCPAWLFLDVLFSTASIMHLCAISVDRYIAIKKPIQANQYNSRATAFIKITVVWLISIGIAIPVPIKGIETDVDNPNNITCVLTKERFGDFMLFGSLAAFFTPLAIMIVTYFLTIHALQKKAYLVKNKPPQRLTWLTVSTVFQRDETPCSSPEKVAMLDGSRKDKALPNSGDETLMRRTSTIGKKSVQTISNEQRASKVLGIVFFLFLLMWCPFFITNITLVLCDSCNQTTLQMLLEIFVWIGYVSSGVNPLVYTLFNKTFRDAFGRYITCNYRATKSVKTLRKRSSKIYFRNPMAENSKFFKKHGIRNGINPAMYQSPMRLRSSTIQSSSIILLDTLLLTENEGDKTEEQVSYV
(§2) Competition binding data were analyzed using nonlinear regression curve-fitting algorithms in GraphPad Prism, 6 for Windows (San Diego, Calif.). […] Ligand affinity was expressed as an approximation of Ki values by conversion of the IC50 value using the Cheng-Prusoff equation […] where L was the concentration of radioligand.

For data set [3], the target named is T3, 5-HT2C (Homo sapiens, UniProt P28335).
T3 sequence (P28335 33-458): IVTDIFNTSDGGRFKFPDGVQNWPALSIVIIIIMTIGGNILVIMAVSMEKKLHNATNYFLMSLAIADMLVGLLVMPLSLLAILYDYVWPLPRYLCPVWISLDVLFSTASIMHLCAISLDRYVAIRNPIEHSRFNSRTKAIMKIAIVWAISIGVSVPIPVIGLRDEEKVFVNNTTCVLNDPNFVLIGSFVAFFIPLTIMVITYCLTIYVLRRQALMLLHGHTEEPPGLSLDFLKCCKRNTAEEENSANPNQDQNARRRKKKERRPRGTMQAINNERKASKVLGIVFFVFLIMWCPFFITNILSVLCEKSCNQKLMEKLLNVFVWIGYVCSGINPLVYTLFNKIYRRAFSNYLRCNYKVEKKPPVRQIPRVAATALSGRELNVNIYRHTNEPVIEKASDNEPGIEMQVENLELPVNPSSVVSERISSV
The data set is described as above. As to conditions: read-out: Affinity (Ki ± SEM) 5-HT2C. The method, then: as §1, §2

For data set [4], the target named is T4, 5-HT2A (Homo sapiens, UniProt P28223). As to the kind of experiment: Radioreceptor competitive binding, [3H]ketanserin (4-PAT series). Particulars: 2.0 nM [3H]ketanserin; HCl salts; read-out: Affinity (Ki ± SEM) 5-HT2A. The protocol: as §1, §2
T4 sequence (P28223 whole entry): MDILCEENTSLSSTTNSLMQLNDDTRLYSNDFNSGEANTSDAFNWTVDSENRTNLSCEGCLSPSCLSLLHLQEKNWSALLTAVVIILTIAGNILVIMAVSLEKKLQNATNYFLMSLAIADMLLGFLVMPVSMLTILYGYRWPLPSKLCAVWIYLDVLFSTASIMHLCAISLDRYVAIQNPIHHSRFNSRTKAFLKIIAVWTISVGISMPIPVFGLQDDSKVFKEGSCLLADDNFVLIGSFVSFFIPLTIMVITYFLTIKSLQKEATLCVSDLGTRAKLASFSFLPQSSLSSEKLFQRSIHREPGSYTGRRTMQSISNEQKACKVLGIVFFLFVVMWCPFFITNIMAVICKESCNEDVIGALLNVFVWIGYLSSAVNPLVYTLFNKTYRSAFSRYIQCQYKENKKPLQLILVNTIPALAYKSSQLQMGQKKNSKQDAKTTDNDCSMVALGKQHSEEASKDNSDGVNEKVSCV
The target of data set [5] is H1 (Homo sapiens, UniProt P35367). As to the kind of experiment: Radioreceptor competitive binding, [3H]mepyramine (4-PAT series). As to conditions: for Ki: 1.0 nM [3H]mepyramine, read-out: Affinity (Ki ± SEM) H1. The protocol: as §1, §2
Chain of H1 (P35367 whole entry): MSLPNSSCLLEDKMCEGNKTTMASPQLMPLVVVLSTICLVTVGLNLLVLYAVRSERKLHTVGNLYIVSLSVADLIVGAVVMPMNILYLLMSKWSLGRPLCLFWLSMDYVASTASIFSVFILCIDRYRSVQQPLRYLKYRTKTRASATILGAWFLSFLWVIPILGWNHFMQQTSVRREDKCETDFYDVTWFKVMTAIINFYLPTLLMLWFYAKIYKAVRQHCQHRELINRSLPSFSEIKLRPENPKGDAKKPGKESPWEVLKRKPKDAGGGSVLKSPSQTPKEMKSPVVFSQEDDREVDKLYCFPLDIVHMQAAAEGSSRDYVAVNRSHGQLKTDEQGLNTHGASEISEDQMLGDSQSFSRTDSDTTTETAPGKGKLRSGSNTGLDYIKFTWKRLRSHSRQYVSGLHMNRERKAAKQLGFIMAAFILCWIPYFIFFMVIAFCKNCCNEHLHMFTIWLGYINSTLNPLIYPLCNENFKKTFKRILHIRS
Data set [6] has as its target T3, 5-HT2C. As to the kind of experiment: Receptor-mediated inositol phosphate hydrolysis, transfected HEK293 cells. The data set is classed as cell-based. Further details: expressed in transfected cells; host or cells: HEK293, transient. The protocol:
(§3) In brief, transiently transfected HEK293 cells were labeled with 1 μCi/ml [3H]myoinositol and seeded into 48-well plates. Cells were treated with test compounds for 30 minutes. The reaction was stopped by addition of 50 mM formic acid. Anion-exchange columns (Bio-Rad Laboratories, Hercules, Calif.) were used to bind and collect [3H]inositol phosphates. 3H-induced scintillations then were measured. Each experiment included a minimum of triplicate measurements for each concentration of test compound, and each experiment was performed a minimum of three times.

In data set [7] the target is T5, histamine H1 receptor (Homo sapiens, UniProt P35367).
T5 construct: expressed in transfected cells; host or cells: HEK293, transient
T5 sequence (P35367 whole entry): as above
The description is as above. The data set is classed as cell-based. The protocol:
as §3, with “Functional responses of analog 7l and 5-HT (positive control agonist, data not shown) by measuring 5-HT2 and H1 receptor-mediated inositol phosphate hydrolysis were assessed. In” for “In”

Data set [8] deals with T4, 5-HT2A. The data set is described as above. Set-up: expressed in transfected cells; host or cells: HEK293, transient. Particulars: concentrations up to 10 μM. Format: cell-based. The method, then: as §3, with “Functional responses of analog 7l and 5-HT (positive control agonist, data not shown) by measuring 5-HT2 and H1 receptor-mediated inositol phosphate hydrolysis were assessed. In” for “In”

Data set [9] addresses T2, 5-HT2B. The data set is described as above. The data set is classed as cell-based. Set-up: expressed in transfected cells; host or cells: HEK293, transient. The method, then: as §3, with “Functional responses of analog 7l and 5-HT (positive control agonist, data not shown) by measuring 5-HT2 and H1 receptor-mediated inositol phosphate hydrolysis were assessed. In” for “In”

Data set [10] has as its system C57BI/6J mice. Briefly: DOI-elicited head-twitch response (HTR) in C57BI/6J mice. The source says:
The 5-HT2A receptor is a predominant 5-HT receptor in the cortex, and serves important excitation modulation functions on glutamate pyramidal and GABA neurons.

Data set [11] addresses T2, 5-HT2B. Further details: expressed in transfected cells; host or cells: HEK293, transient. Particulars: cited from earlier work.
Data set [12] deals with T4, 5-HT2A. Set-up: expressed in transfected cells; host or cells: HEK293, transient. Particulars: cited from earlier work.

Structures are written as SMILES. Entries after “also recorded” stand apart in the source; their conditions may differ.

T1 sequence (P34969 1-445 isoform P34969-2): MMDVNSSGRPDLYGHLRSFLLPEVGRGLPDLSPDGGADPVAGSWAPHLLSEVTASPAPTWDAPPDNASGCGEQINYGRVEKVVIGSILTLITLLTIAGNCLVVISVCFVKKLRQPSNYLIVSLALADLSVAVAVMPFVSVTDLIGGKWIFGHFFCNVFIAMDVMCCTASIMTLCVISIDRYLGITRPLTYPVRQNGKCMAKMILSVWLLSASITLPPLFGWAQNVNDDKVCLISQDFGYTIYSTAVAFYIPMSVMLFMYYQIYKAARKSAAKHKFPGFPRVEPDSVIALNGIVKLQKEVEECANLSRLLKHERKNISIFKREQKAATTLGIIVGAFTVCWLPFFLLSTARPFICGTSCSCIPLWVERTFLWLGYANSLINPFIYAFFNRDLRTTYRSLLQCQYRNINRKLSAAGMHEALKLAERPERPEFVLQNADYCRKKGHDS

For orientation: Ki means a measure of affinity in units of concentration, obtained from inhibition or displacement. As to `COc1cc(CC(C)N)c(OC)cc1I` (racemic) [DOI, (±)-2,5-dimethoxy-4-iodoamphetamine, reference compound], the Ki in [1] was greater than 1000 nM.

Take `COc1cc2c(cc1Cl)C[C@@H](N(C)C)C[C@@H]2c1ccccc1` (single isomer, unassigned): the Ki in data set [2] stood at 17.3 ± 5.33 nM; in [3] it was 24 ± 2.5 nM; in [4], 160 ± 24 nM; in [5] it was 1.2 ± 0.6 nM.

Take `COc1cc2c(cc1Cl)C[C@@H](N(C)C)C[C@H]2c1ccccc1` (single isomer, unassigned) [Compound 7c, Cis-4-Phenyl-6-methoxy-7-chloro-N,N-dimethyl-1,2,3,4-tetrahydronaphthalen-2-amine]: the Ki was 2500 nM in data set [2], 1600 nM in data set [3], 2300 nM in data set [4] and greater than 1000 nM in data set [5]. Moreover, the “Lower H1 receptor affinity than (+)-cis-PAT 1c analog” value in data set [5] is “about 10 fold”.

On to `COc1cc2c(cc1Cl)C[C@@H](N(C)C)C[C@H]2c1ccccc1` (single isomer, unassigned) [Compound 7d, Cis-4-Phenyl-6-methoxy-7-chloro-N,N-dimethyl-1,2,3,4-tetrahydronaphthalen-2-amine], for which the Ki is 43 ± 5 nM in data set [2], 96 ± 18 nM in [3], 320 ± 42 nM in data set [4] and 10.8 ± 0.6 nM in data set [5].

Take `COc1cc2c(cc1Cl)CC(N(C)C)CC2c1cccc(Cl)c1` (single isomer, unassigned) [Compound 7f]: the Ki in data set [2] stood at 56 nM; in data set [3] it was 9 ± 2 nM; in data set [4] it was 50 ± 20 nM; in [5], 18.9 ± 0.7 nM.

Turning to `COc1cc2c(cc1Cl)C[C@@H](N(C)C)C[C@@H]2c1cccc(Br)c1` (single isomer, unassigned) [Compound 7i, Trans-4-(3′-Bromophenyl)-6-methoxy-7-chloro-N,N-dimethyl-1,2,3,4-tetrahydronaphthalen-2-amine], the Ki in data set [2] is 169 ± 27 nM; in data set [3] it was 350 ± 130 nM; in data set [4] it was 79 ± 14 nM; in data set [5] it was 650 ± 21 nM.

Take `COc1cc2c(cc1Cl)C[C@@H](N(C)C)C[C@@H]2c1cccc(Br)c1` (single isomer, unassigned) [Compound 7j, Trans-4-(3′-Bromophenyl)-6-methoxy-7-chloro-N,N-dimethyl-1,2,3,4-tetrahydronaphthalen-2-amine]: the Ki in data set [2] came out at 50 nM; in [3], 130 ± 43 nM; in data set [4] it was 61 ± 15 nM; in data set [5], 230 ± 33 nM.

In the case of `COc1ccc2c(c1)[C@@H](c1cccc(Cl)c1)C[C@H](N(C)C)C2` (single isomer, unassigned) [Compound 7k, Trans-4-(3′-Chlorophenyl)-6-methoxy-N,N-dimethyl-1,2,3,4-tetrahydronaphthalen-2-amine], the Ki in data set [2] was 310 ± 41 nM; in data set [3], 280 ± 30 nM; in data set [4], 350 ± 16 nM; in [5] it was 740 ± 80 nM.

What is called Emax is the greatest response seen or fitted, relative to the assay's reference. What is called EC50 is the concentration that produces a half-maximal response. For orientation: IC50 means the point on the concentration scale where inhibition reaches its midpoint. Low readings indicate greater potency in that assay, high ones weaker potency in that assay. As to `COc1ccc2c(c1)[C@@H](c1cccc(Cl)c1)C[C@H](N(C)C)C2` (single isomer, unassigned) [Compound 7l, Trans-4-(3′-Chlorophenyl)-6-methoxy-N,N-dimethyl-1,2,3,4-tetrahydronaphthalen-2-amine], the Ki in data set [2] was 65 nM; in [3], 17 ± 1 nM; in [4], 35 ± 3 nM; in [5], 86 ± 18 nM. Besides, in data set [6] (HEK293, read-out: Efficacy 5-HT2C, EMAX), the maximal effect (Emax) came to 73 ± 6%. For the same compound, the EC50 in data set [6] (read-out: Function 5-HT2C, EC50 (agonist potency)) turned out to be 19 ± 1 nM. Moreover, the “Efficacy H1, Imax” value in data set [7] (inverse agonist) is listed as −25 ± 1.5%. For the same compound, the IC50 in data set [7] (mean ± S.E.M.) is 48 nM; in data set [9] (mean ± S.E.M.) it was 51 nM. For the same compound, in data set [5], the “Reduced affinity at H1 receptors compared to unsubstituted PAT (7b)” value is listed as greater than 40 fold. Also, the “Function 5-HT2A (activation)” value in data set [8] is “did not activate”; in data set [8] (listed as 71), “No”. In data set [9] (inverse agonist), the “Efficacy 5-HT2B, Imax” value is given as “Imax = −17 ± 4.6%”.

As to `CN(C)[C@@H]1Cc2cc(Cl)c(O)cc2[C@@H](c2ccccc2)C1` (single isomer, unassigned) [Compound 7m, Trans-4-Phenyl-6-hydroxy-7-chloro-N,N-dimethyl-1,2,3,4-tetrahydronaphthalen-2-amine], the Ki in data set [2] was 1200 nM; in data set [3] it was 1000 nM; in data set [4] it was 70 ± 2.6 nM; in data set [5] it was 109 ± 17 nM.

On to `CN(C)[C@@H]1Cc2cc(Cl)c(O)cc2[C@@H](c2ccccc2)C1` (single isomer, unassigned) [Compound 7n, Trans-4-Phenyl-6-hydroxy-7-chloro-N,N-dimethyl-1,2,3,4-tetrahydronaphthalen-2-amine], for which the Ki was 91 nM in data set [2], 23 ± 3 nM in data set [3], 60 ± 5.4 nM in data set [4] and 3 ± 1 nM in data set [5].

Take `Cc1nn(C)c(C)c1-c1cccc2c1CC[C@H](N(C)C)C2` [AS-19, reference compound]: the “DOI-elicited HTR” value in data set [10] (C57BI/6J mice, DOI 1 mg/kg, 5-FPT up to 5.6 mg/kg, AS-19 10 mg/kg, DPAT 0.5 mg/kg) is listed as “suppressed the DOI HTR; also recorded: attenuated the HTR”. In addition, the “Locomotor behavior and serotonin syndrome seen in the DOI HTR assay” value in data set [10] (data not shown) was “neither (−)-DPAT, a 5-HT1A partial agonist, nor AS-19 affected locomotor behavior or caused obvious serotonin syndrome”.

For the compound `C[C@H](N)Cn1ccc2cc(F)c(Cl)cc21` [Ro60-0175], in data set [11], the “Activation of 5-HT2B receptors by reported selective 5-HT2C agonists” value was “also activate”. In addition, the “Activation of 5-HT2A receptors by reported selective 5-HT2C agonists” value in data set [12] is “also activate”.

On to `C[C@H]1CNCCc2ccc(Cl)cc21` [lorcaserin], for which the “Activation of 5-HT2B receptors by reported selective 5-HT2C agonists” value in data set [11] is listed as “also activate”. Also, the “Activation of 5-HT2A receptors by reported selective 5-HT2C agonists” value in [12] is “also activate”.
